Like-named read-outs stand apart in the source and are kept apart here.
What was measured:
[1] = system: S. aureus RN450; experiment: In Vitro Anti-Bacterial Activity Assay (MIC), gram positive; format: cell-based; details: Staphylococcus aureus, RN450, 18 h
[2] = system: E. coli mL308 225; experiment: In Vitro Anti-Bacterial Activity Assay (MIC), gram negative; format: cell-based; details: Escherichia coli, ML308225, 18 h, MIC class, Table 3 (Continued); read-out: Gram− activity
[3] = MIC class, Table 3 (Continued), read-out: Gram+ activity

| MIC ([1]; MIC class, Table 3, read-out: Antibiotic Activity Gram +) | Structure (SMILES) | MIC [1, 3] | MIC [2] | MIC ([1]; read-out: Antibiotic Activity Gram +) |
| --- | --- | --- | --- | --- |
| – | Cc1c2c(c(O)c3c(O)cccc13)C(=O)[C@]1(O)C(=O)C(C(N)=O)=C(O)[C@@H](N(C)C)[C@@H]1C2 | < 4 µg/mL | < 4 µg/mL | – |
| – | CC1c2cccc(O)c2C(=O)C2=C(O)[C@]3(O)C(=O)C(C(N)=O)=C(O)[C@@H](N(C)C)[C@@H]3[C@@H](O)[C@@H]21 (stereo partly shown) | < 4 µg/mL | > 4 µg/mL | – |
| – | C#Cc1cc(N(C)C)c2c(c1O)C(=O)C1=C(O)[C@]3(O)C(=O)C(C(N)=O)=C(O)C(N(C)C)[C@@H]3C[C@@H]1C2 (stereo partly shown) | < 4 µg/mL | > 4 µg/mL | – |
| – | CN(C)Cc1ccc(-c2ccc(O)c3c2C[C@H]2C[C@H]4C(N(C)C)C(O)=C(C(N)=O)C(=O)[C@@]4(O)C(O)=C2C3=O)cc1 (stereo partly shown) | < 4 µg/mL | < 4 µg/mL | – |
| – | CN(C)c1cc(NC(=O)Nc2ccccc2)c(O)c2c1C[C@H]1C[C@H]3C(N(C)C)C(O)=C(C(N)=O)C(=O)[C@@]3(O)C(O)=C1C2=O (stereo partly shown) | < 4 µg/mL | < 4 µg/mL | – |
| – | CCCCCc1ccc(O)c2c1C[C@H]1C[C@H]3C(N(C)C)C(O)=C(C(N)=O)C(=O)[C@@]3(O)C(O)=C1C2=O (stereo partly shown) | < 4 µg/mL | < 4 µg/mL | – |
| – | CN(C)c1cc(CN2CCCCC2)c(O)c2c1C[C@H]1C[C@H]3C(N(C)C)C(O)=C(C(N)=O)C(=O)[C@@]3(O)C(O)=C1C2=O (stereo partly shown) | < 4 µg/mL | > 4 µg/mL | – |
| – | CC1c2cccc(O)c2C(=O)C(C(=O)O)C1[C@H](O)[C@@H]1CC(=O)C(C(N)=O)=C(O)[C@H]1N(C)C (stereo partly shown) | > 4 µg/mL | > 4 µg/mL | – |
| – | CCCC(=O)C[C@@H]1[C@H]2[C@H](N(C)C)C(O)=C(C(N)=O)C(=O)[C@@]2(O)C(O)=C2C(=O)c3c(O)cccc3C(C)[C@H]21 (stereo partly shown) | < 4 µg/mL | < 4 µg/mL | – |
| – | CC1c2cccc(O)c2C(=O)C2=C(O)[C@]3(O)C(=O)C(C(N)=O)=C(O)[C@@H](N(C)C)[C@@H]3[C@@H](OC(=O)C3CCCCC3)[C@@H]21 (stereo partly shown) | < 4 µg/mL | < 4 µg/mL | – |
| – | CC1c2cccc(O)c2C(=O)C2=C(O)[C@]3(O)C(=O)C(C(N)=O)=C(O)[C@@H](N(C)C)[C@@H]3[C@@H](OC(=O)C3CCC3)[C@@H]21 (stereo partly shown) | < 4 µg/mL | < 4 µg/mL | – |
| – | CC(=O)O[C@@H]1[C@H]2[C@H](N(C)C)C(O)=C(C(N)=O)C(=O)[C@@]2(O)C(O)=C2C(=O)c3c(O)cccc3C(C)[C@H]21 (stereo partly shown) | < 4 µg/mL | < 4 µg/mL | – |
| – | CC1c2ccc(C3(C)CCCC3)c(O)c2C(=O)C2=C(O)[C@]3(O)C(=O)C(C(N)=O)=C(O)[C@@H](N(C)C)[C@@H]3[C@@H](O)[C@@H]21 (stereo partly shown) | < 4 µg/mL | < 4 µg/mL | – |
| – | CC1c2cccc(O)c2C(=O)C2=C(O)[C@]3(O)C(=O)C(C(N)=O)=C(O)[C@@H](N(C)C)[C@@H]3[C@@H](OC(=O)CCC(=O)O)[C@@H]21 (stereo partly shown) | < 4 µg/mL | > 4 µg/mL | – |
| – | CCC(=O)O[C@@H]1[C@H]2[C@H](N(C)C)C(O)=C(C(N)=O)C(=O)[C@@]2(O)C(O)=C2C(=O)c3c(O)cccc3C(C)[C@H]21 (stereo partly shown) | > 4 µg/mL | > 4 µg/mL | – |
| – | CCOC(=O)/C=C/c1ccc2c(c1O)C(=O)C1=C(O)[C@]3(O)C(=O)C(C(N)=O)=C(O)[C@@H](N(C)C)[C@@H]3[C@@H](O)[C@@H]1C2C (stereo partly shown) | < 4 µg/mL | < 4 µg/mL | – |
| – | CC1c2ccc(-c3ccccc3)c(O)c2C(=O)C2=C(O)[C@]3(O)C(=O)C(C(N)=O)=C(O)[C@@H](N(C)C)[C@@H]3[C@@H](O)[C@@H]21 (stereo partly shown) | < 4 µg/mL | < 4 µg/mL | – |
| – | CC1c2ccc(C3C=CCC3)c(O)c2C(=O)C2=C(O)[C@]3(O)C(=O)C(C(N)=O)=C(O)[C@@H](N(C)C)[C@@H]3[C@@H](O)[C@@H]21 (stereo partly shown) | < 4 µg/mL | < 4 µg/mL | – |
| – | COc1ccc(-c2ccc3c(c2O)C(=O)C2=C(O)[C@]4(O)C(=O)C(C(N)=O)=C(O)[C@@H](N(C)C)[C@@H]4[C@@H](O)[C@@H]2C3C)cc1 (stereo partly shown) | < 4 µg/mL | < 4 µg/mL | – |
| – | CC1c2ccc(-c3cc4ccccc4o3)c(O)c2C(=O)C2=C(O)[C@]3(O)C(=O)C(C(N)=O)=C(O)[C@@H](N(C)C)[C@@H]3[C@@H](O)[C@@H]21 (stereo partly shown) | < 4 µg/mL | < 4 µg/mL | – |
| – | CN(C)[C@@H]1C(O)=C(C(N)=O)C(=O)[C@@]2(O)C(O)=C3C(=O)c4c(O)cccc4/C(=C\c4ccc(F)cc4)[C@H]3[C@H](O)[C@@H]12 | < 4 µg/mL | < 4 µg/mL | – |
| – | CC1c2ccc(-c3ccc4c(c3)OCO4)c(O)c2C(=O)C2=C(O)[C@]3(O)C(=O)C(C(N)=O)=C(O)[C@@H](N(C)C)[C@@H]3[C@@H](O)[C@@H]21 (stereo partly shown) | < 4 µg/mL | < 4 µg/mL | – |
| – | CC1c2c(-c3ccc(Cl)cc3)ccc(O)c2C(=O)C2=C(O)[C@]3(O)C(=O)C(C(N)=O)=C(O)[C@@H](N(C)C)[C@@H]3[C@@H](O)[C@@H]21 (stereo partly shown) | < 4 µg/mL | < 4 µg/mL | – |
| – | CCOc1ccc(/C=C2\c3cccc(O)c3C(=O)C3=C(O)[C@]4(O)C(=O)C(C(N)=O)=C(O)[C@@H](N(C)C)[C@@H]4[C@@H](O)[C@@H]32)cc1 | < 4 µg/mL | > 4 µg/mL | – |

| MIC ([1]; MIC class, Table 3, read-out: Antibiotic Activity Gram +) | Structure (SMILES) | MIC [1, 3] | MIC [2] | MIC ([1]; read-out: Antibiotic Activity Gram +) |
| --- | --- | --- | --- | --- |
| – | CN(C)[C@@H]1C(O)=C(C(N)=O)C(=O)[C@@]2(O)C(O)=C3C(=O)c4c(O)cccc4C(CSCc4ccccc4)[C@H]3[C@H](O)[C@@H]12 (stereo partly shown) | < 4 µg/mL | < 4 µg/mL | – |
| – | CN(C)[C@@H]1C(O)=C(C(N)=O)C(=O)[C@@]2(O)C(O)=C3C(=O)c4c(O)ccc(Br)c4C[C@H]3C[C@@H]12 | < 4 µg/mL | < 4 µg/mL | – |
| – | CCN(CC)c1ccc(-c2c[nH]c(Nc3ccc4c(c3O)C(=O)C3=C(O)[C@]5(O)C(=O)C(C(N)=O)=C(O)[C@@H](N(C)C)[C@@H]5[C@@H](O)[C@@H]3[C@H]4C)n2)cc1 | < 4 µg/mL | > 4 µg/mL | – |
| – | CN(C)[C@@H]1C(O)=C(C(N)=O)C(=O)[C@@]2(O)C(O)=C3C(=O)c4c(O)ccc(-c5cccc([N+](=O)[O-])c5)c4C[C@H]3C[C@@H]12 | < 4 µg/mL | < 4 µg/mL | – |
| – | COC(=O)c1ccc(-c2ccc(O)c3c2C[C@H]2C[C@H]4[C@H](N(C)C)C(O)=C(C(N)=O)C(=O)[C@@]4(O)C(O)=C2C3=O)cc1 | < 4 µg/mL | < 4 µg/mL | – |
| – | CN(C)c1ccc(-c2ccc(O)c3c2C[C@H]2C[C@H]4[C@H](N(C)C)C(O)=C(C(N)=O)C(=O)[C@@]4(O)C(O)=C2C3=O)cc1 | < 4 µg/mL | < 4 µg/mL | – |
| – | CN(C)c1cc(-c2ccc(C(=O)O)cc2)c(O)c2c1C[C@H]1C[C@H]3[C@H](N(C)C)C(O)=C(C(N)=O)C(=O)[C@@]3(O)C(O)=C1C2=O | < 4 µg/mL | < 4 µg/mL | – |
| – | CN(C)c1cc(-c2ccc(F)cc2F)c(O)c2c1C[C@H]1C[C@H]3[C@H](N(C)C)C(O)=C(C(N)=O)C(=O)[C@@]3(O)C(O)=C1C2=O | < 4 µg/mL | < 4 µg/mL | – |
| – | CN(C)c1cc(-c2ccc(F)c(F)c2)c(O)c2c1C[C@H]1C[C@H]3[C@H](N(C)C)C(O)=C(C(N)=O)C(=O)[C@@]3(O)C(O)=C1C2=O | < 4 µg/mL | < 4 µg/mL | – |
| – | CN(C)c1cc(C#Cc2ccccc2)c(O)c2c1C[C@H]1C[C@H]3[C@H](N(C)C)C(O)=C(C(N)=O)C(=O)[C@@]3(O)C(O)=C1C2=O | < 4 µg/mL | < 4 µg/mL | – |
| – | CN(C)[C@@H]1C(O)=C(C(N)=O)C(=O)[C@@]2(O)C(O)=C3C(=O)c4c(O)ccc(C#Cc5ccccc5)c4C[C@H]3C[C@@H]12 | < 4 µg/mL | < 4 µg/mL | – |
| – | CN(C)[C@@H]1C(O)=C(C(N)=O)C(=O)[C@@]2(O)C(O)=C3C(=O)c4c(O)ccc(C5C=CCC5)c4C[C@H]3C[C@@H]12 (stereo partly shown) | < 4 µg/mL | < 4 µg/mL | – |
| – | COc1ccc(C#Cc2cc(N(C)C)c3c(c2O)C(=O)C2=C(O)[C@]4(O)C(=O)C(C(N)=O)=C(O)[C@@H](N(C)C)[C@@H]4C[C@@H]2C3)cc1 | < 4 µg/mL | < 4 µg/mL | – |
| – | CN(C)c1cc(C#Cc2ccc(F)cc2)c(O)c2c1C[C@H]1C[C@H]3[C@H](N(C)C)C(O)=C(C(N)=O)C(=O)[C@@]3(O)C(O)=C1C2=O | < 4 µg/mL | < 4 µg/mL | – |
| – | CC#Cc1cc(N(C)C)c2c(c1O)C(=O)C1=C(O)[C@]3(O)C(=O)C(C(N)=O)=C(O)[C@@H](N(C)C)[C@@H]3C[C@@H]1C2 | > 4 µg/mL | > 4 µg/mL | – |
| – | CN(C)[C@@H]1C(O)=C(C(N)=O)C(=O)[C@@]2(O)C(O)=C3C(=O)c4c(O)ccc(C#CC5CCCCC5)c4C[C@H]3C[C@@H]12 | < 4 µg/mL | < 4 µg/mL | – |
| – | CN(C)[C@@H]1C(O)=C(C(N)=O)C(=O)[C@@]2(O)C(O)=C3C(=O)c4c(O)ccc(/C=C/c5c(F)c(F)c(F)c(F)c5F)c4C[C@H]3C[C@@H]12 | < 4 µg/mL | > 4 µg/mL | – |
| – | CN(C)c1cc(C#CC2=CCCCC2)c(O)c2c1C[C@H]1C[C@H]3[C@H](N(C)C)C(O)=C(C(N)=O)C(=O)[C@@]3(O)C(O)=C1C2=O | < 4 µg/mL | < 4 µg/mL | – |
| – | CN(C)[C@@H]1C(O)=C(C(N)=O)C(=O)[C@@]2(O)C(O)=C3C(=O)c4c(O)ccc(-c5ccc(C(F)(F)F)cc5)c4C[C@H]3C[C@@H]12 | < 4 µg/mL | < 4 µg/mL | – |
| – | Cc1ccc(-c2ccc(O)c3c2C[C@H]2C[C@H]4[C@H](N(C)C)C(O)=C(C(N)=O)C(=O)[C@@]4(O)C(O)=C2C3=O)cc1 | < 4 µg/mL | < 4 µg/mL | – |
| – | CN(C)[C@@H]1C(O)=C(C(N)=O)C(=O)[C@@]2(O)C(O)=C3C(=O)c4c(O)ccc(C=C5CCC5)c4C[C@H]3C[C@@H]12 | < 4 µg/mL | < 4 µg/mL | – |
| – | CCNc1ccc(-c2ccc(O)c3c2C[C@H]2C[C@H]4[C@H](N(C)C)C(O)=C(C(N)=O)C(=O)[C@@]4(O)C(O)=C2C3=O)cc1 | < 4 µg/mL | < 4 µg/mL | – |
| < 4 µg/mL | CCCC(C)(C)NC(=O)C1=C(O)[C@@H](N(C)C)[C@@H]2[C@@H](O)[C@H]3C(=C(O)[C@]2(O)C1=O)C(=O)c1c(O)cccc1[C@@H]3C [P] | – | – | – |
| – | CCOP(=O)(OCC)C(Nc1cc(N(C)C)c2c(c1O)C(=O)C1=C(O)[C@]3(O)C(=O)C(C(N)=O)=C(O)[C@@H](N(C)C)[C@@H]3C[C@@H]1C2)c1ccc(OC)cc1 (stereo partly shown) [Z] | – | – | < 4 µg/mL |

— patent publication US20150141381A1, “TETRACYCLINE COMPOUNDS HAVING TARGET THERAPEUTIC ACTIVITIES” (Paratek Pharmaceuticals, Inc., priority 2001, published 2015)
